{"source": "patent US11957648B2", "about": "“Method of initiating or escalating dofetilide dose and formulations therefor” (Academic Pharmaceuticals, Inc., priority 2018, dated 2024)", "origin": "cited, not measured here", "key": {"QTc interval": {"system": "QTc interval", "settings": "slope of plasma concentration vs QTc; Sedgwick et al; cited from earlier work"}, "[1]": {"settings": "oral dosing; cited from earlier work"}}, "data": [{"smiles": "CN(CCOc1ccc(NS(C)(=O)=O)cc1)CCc1ccc(NS(C)(=O)=O)cc1", "note": "[Dofetilide, β-((p-methanesulfonamidophenethyl)methylamino)methanesulfono-p-phenetidide]", "values": [{"measurement": "QTc change per dofetilide plasma concentration", "setting": "QTc interval", "value": "15 to 25", "unit": "ms/ng/mL"}, {"measurement": "time to reach steady state concentration", "setting": "[1]", "value": "at least 3 days"}]}]}
